This test addresses T1, RET (Homo sapiens, UniProt P07949).
T1 construct: purchased Upstate 14-570MG
Nature of the test: Inhibition of RET kinase activity, recombinant RET method (Kinase-Glo). The format is biochemical. As to conditions: RET 2 μg/ml, poly-EY4 substrate, 20 μM ATP, two hours at 30° C. Here is the method:
The inhibition of the kinase activity of the compounds of the invention is assessed by measuring their IC50 on RET.
where: • Y is the value of the luminescence • X is the logarithm of the concentration of the compound • Bottom is the minimum Y value • Top is the maximum Y value • LogIC50 is the value of X when Y is 50% from Top—Bottom.
The quantity of RET required is 2 μg/ml.
The following buffer is used for dilution of RET: 20 mM MOPS/NaOH pH7.0, 1 mM EDTA, 5% glycerol, 0.01% Brij35 (Sigma B4184), 0.1% 2-mercaptoethanol, 1 mg/ml BSA (Sigma A3059-10G).
The dilution of the compounds of the invention is distributed so as to obtain a scale of final concentrations between 10 nM and 30 μM.
After incubation of the reaction mixture for two hours at 30° C., the level of ATP that remains is assayed using the Kinase-Glo Luminescent Kinase Assay (Promega #V6712) according to the conditions recommended by the supplier. The luminescence induced is read in a plate reader (Envision-Perkin Elmer).
(In general: In Kinase-Glo more light means more ATP remaining.)

The values below come from US8426437B2, “Pyrroloquinoline derivatives and their use as protein kinases inhibitors” (Pierre Fabre Medicament, priority 2005, dated 2013).

T1 sequence (P07949 29-1114): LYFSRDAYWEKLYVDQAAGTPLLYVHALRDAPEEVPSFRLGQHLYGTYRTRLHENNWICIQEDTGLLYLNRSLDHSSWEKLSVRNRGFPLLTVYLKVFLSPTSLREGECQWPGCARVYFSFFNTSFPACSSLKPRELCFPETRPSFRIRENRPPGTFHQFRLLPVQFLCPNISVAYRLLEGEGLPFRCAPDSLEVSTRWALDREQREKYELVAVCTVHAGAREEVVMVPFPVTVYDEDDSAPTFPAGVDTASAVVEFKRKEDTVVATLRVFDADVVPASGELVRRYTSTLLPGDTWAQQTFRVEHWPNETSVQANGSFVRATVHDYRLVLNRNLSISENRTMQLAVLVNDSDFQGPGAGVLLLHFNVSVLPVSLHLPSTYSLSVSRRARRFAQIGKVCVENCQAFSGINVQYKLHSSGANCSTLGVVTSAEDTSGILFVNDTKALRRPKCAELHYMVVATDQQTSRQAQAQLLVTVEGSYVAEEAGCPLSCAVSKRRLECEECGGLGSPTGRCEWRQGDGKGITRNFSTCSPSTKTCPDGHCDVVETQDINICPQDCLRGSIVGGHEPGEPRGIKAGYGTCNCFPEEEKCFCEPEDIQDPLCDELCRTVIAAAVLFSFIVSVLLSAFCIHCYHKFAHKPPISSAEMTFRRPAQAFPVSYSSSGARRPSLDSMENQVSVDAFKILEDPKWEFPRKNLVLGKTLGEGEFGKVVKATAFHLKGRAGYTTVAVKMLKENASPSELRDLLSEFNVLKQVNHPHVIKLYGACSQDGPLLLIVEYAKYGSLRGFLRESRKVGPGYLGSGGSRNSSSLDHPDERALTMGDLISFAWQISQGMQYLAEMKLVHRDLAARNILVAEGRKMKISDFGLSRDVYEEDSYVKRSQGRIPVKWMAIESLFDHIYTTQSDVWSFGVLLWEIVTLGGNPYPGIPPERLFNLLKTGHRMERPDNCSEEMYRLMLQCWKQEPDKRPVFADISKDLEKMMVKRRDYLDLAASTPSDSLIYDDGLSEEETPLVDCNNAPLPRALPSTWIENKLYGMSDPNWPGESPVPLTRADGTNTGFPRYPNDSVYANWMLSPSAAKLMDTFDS

As usually defined, the IC50 is the concentration needed to halve the response being measured. Take `CCOC(=O)c1c[nH]c2c(=O)[nH]c3ccc(S(=O)(=O)Nc4ccccc4C)cc3c12` [Compound 4, 4-Oxo-8-o-tolylsulfamoyl-4,5-dihydro-3H-pyrrolo[2,3-c]quinoline-1-ethyl carboxylate]: the IC50 was less than 100 nM.

As for `CCOC(=O)c1c[nH]c2c(=O)[nH]c3ccc(S(=O)(=O)Nc4cccc(C)c4)cc3c12` [Compound 5, 4-Oxo-8-m-tolylsulfamoyl-4,5-dihydro-3H-pyrrolo[2,3-c]quinoline-1-ethyl carboxylate], the IC50 fell in the range of 100 to 1000 nM.

Consider `CCOC(=O)c1c[nH]c2c(=O)[nH]c3ccc(S(=O)(=O)Nc4ccccc4OC)cc3c12` [Compound 7, 8-(2-Methoxy-phenylsulfamoyl)-4-oxo-4,5-dihydro-3H-pyrrolo[2,3-c]quinoline-1-ethyl carboxylate], for which the IC50 lay within 100 to 1000 nM.

On to `CCOC(=O)c1c[nH]c2c(=O)[nH]c3ccc(S(=O)(=O)Nc4ccc(OC)cc4)cc3c12` [Compound 9, 8-(4-Methoxy-phenylsulfamoyl)-4-oxo-4,5-dihydro-3H-pyrrolo[2,3-c]quinoline-1-ethyl carboxylate], for which the IC50 is 100 to 1000 nM.

With `CCOC(=O)c1c[nH]c2c(=O)[nH]c3ccc(S(=O)(=O)Nc4cccc(Cl)c4)cc3c12` [Compound 10, 8-(3-Chlorophenylsulfamoyl)-4-oxo-4,5-dihydro-3H-pyrrolo[2,3-c]quinoline-1-ethyl carboxylate], the IC50 was in the range of 100 to 1000 nM.

In the case of `CCOC(=O)c1c[nH]c2c(=O)[nH]c3ccc(S(=O)(=O)Nc4ccc(Cl)cc4)cc3c12` [Compound 11, 8-(4-Chlorophenylsulfamoyl)-4-oxo-4,5-dihydro-3H-pyrrolo[2,3-c]quinoline-1-ethyl carboxylate], the half-maximal inhibitory concentration (IC50) lay within 100 to 1000 nM.

Regarding `CCOC(=O)c1c[nH]c2c(=O)[nH]c3ccc(S(=O)(=O)N(C)c4ccc(F)cc4)cc3c12` [Compound 13, 8-[(4-Fluorophenyl)-N-methyl-sulfamoyl)-4-oxo-4,5-dihydro-3H-pyrrolo[2,3-c]quinoline-1-ethyl carboxylate], the 50% inhibitory concentration (IC50) was less than 100 nM.

As for `CCOC(=O)c1ccc(NS(=O)(=O)c2ccc3[nH]c(=O)c4[nH]cc(C(=O)OCC)c4c3c2)cc1` [Compound 14, 8-(4-Ethoxycarbonyl-phenylsulfamoyl)-4-oxo-4,5-dihydro-3H-pyrrolo[2,3-c]quinoline-1-ethyl carboxylate], the half-maximal inhibitory concentration (IC50) is 1000 to 10000 nM.

Regarding `CCOC(=O)c1c[nH]c2c(=O)[nH]c3ccc(S(=O)(=O)Nc4cccc(O)c4)cc3c12` [Compound 15, 8-(3-Hydroxy-phenylsulfamoyl)-4-oxo-4,5-dihydro-3H-pyrrolo[2,3-c]quinoline-1-ethyl carboxylate], the IC50 fell in the range of 100 to 1000 nM.

Turning to `CCOC(=O)c1c[nH]c2c(=O)[nH]c3ccc(S(=O)(=O)Nc4cccc(F)c4C)cc3c12` [Compound 16, 8-(3-Fluoro-2-methyl-phenylsulfamoyl)-4-oxo-4,5-dihydro-3H-pyrrolo[2,3-c]quinoline-1-ethyl carboxylate], the IC50 is less than 100 nM.

As for `CCOC(=O)c1c[nH]c2c(=O)[nH]c3ccc(S(=O)(=O)Nc4ccc(F)cc4C)cc3c12` [Compound 17, 8-(4-Fluoro-2-methyl-phenylsulfamoyl)-4-oxo-4,5-dihydro-3H-pyrrolo[2,3-c]quinoline-1-ethyl carboxylate], the IC50 was less than 100 nM.

As to `CCOC(=O)c1c[nH]c2c(=O)[nH]c3ccc(S(=O)(=O)Nc4ccc(F)c(F)c4)cc3c12` [Compound 18, 8-(3,4-Difluorophenylsulfamoyl)-4-oxo-4,5-dihydro-3H-pyrrolo[2,3-c]quinoline-1-ethyl carboxylate], the half-inhibitory concentration (IC50) is less than 100 nM.

As to `CCOC(=O)c1c[nH]c2c(=O)[nH]c3ccc(S(=O)(=O)Nc4cc(F)cc(F)c4)cc3c12` [Compound 19, 8-(3,5-Difluorophenylsulfamoyl)-4-oxo-4,5-dihydro-3H-pyrrolo[2,3-c]quinoline-1-ethyl carboxylate], the half-inhibitory concentration (IC50) fell in the range of 100 to 1000 nM.

Turning to `CCOC(=O)c1c[nH]c2c(=O)[nH]c3ccc(S(=O)(=O)Nc4ccc(N)cc4)cc3c12` [Compound 20, 8-(4-Aminophenylsulfamoyl)-4-oxo-4,5-dihydro-3H-pyrrolo[2,3-c]quinoline-1-ethyl carboxylate], the concentration for half-maximal inhibition (IC50) was less than 100 nM.

In the case of `CCOC(=O)c1c[nH]c2c(=O)[nH]c3ccc(S(=O)(=O)N4CCc5ccccc54)cc3c12` [Compound 21, 8-(2,3-Dihydro-indole-1-sulfonyl)-4-oxo-4,5-dihydro-3H-pyrrolo[2,3-c]quinoline-1-ethyl carboxylate], the IC50 fell in the range of 100 to 1000 nM.

For `CCOC(=O)c1c[nH]c2c(=O)[nH]c3ccc(S(=O)(=O)Nc4ccc(N5CCOCC5)cc4)cc3c12` [Compound 22, 8-(4-Morpholin-4-yl-phenylsulfamoyl)-4-oxo-4,5-dihydro-3H-pyrrolo[2,3-c]quinoline-1-ethyl carboxylate], the IC50 lay within 10000 to 100000 nM.

`CCOC(=O)c1c[nH]c2c(=O)[nH]c3ccc(S(=O)(=O)Nc4cccnc4)cc3c12` [Compound 23, 4-Oxo-8-(pyridin-3-ylsulfamoyl)-4,5-dihydro-3H-pyrrolo[2,3-c]quinoline-1-ethyl carboxylate]: the IC50 lay in the range of 100 to 1000 nM.

As to `CCOC(=O)c1c[nH]c2c(=O)[nH]c3ccc(S(=O)(=O)N(C)Cc4ccccc4)cc3c12` [Compound 24, 8-(Benzyl-methyl-sulfamoyl)-4-oxo-4,5-dihydro-3H-pyrrolo[2,3-c]quinoline-1-ethyl carboxylate], the 50% inhibitory concentration (IC50) was in the range of 100 to 1000 nM.

As to `CCOC(=O)c1c[nH]c2c(=O)[nH]c3ccc(S(=O)(=O)N(C)CCc4ccccc4)cc3c12` [Compound 25, 8-(Methyl-phenethyl-sulfamoyl)-4-oxo-4,5-dihydro-3H-pyrrolo[2,3-c]quinoline-1-ethyl carboxylate], the IC50 lay in the range of 1000 to 10000 nM.

As to `CCOC(=O)c1c[nH]c2c(=O)[nH]c3ccc(S(=O)(=O)N(C)C)cc3c12` [Compound 26, 8-Dimethylsulfamoyl-4-oxo-4,5-dihydro-3H-pyrrolo[2,3-c]quinoline-1-ethyl carboxylate], the 50% inhibitory concentration (IC50) was in the range of 100 to 1000 nM.

As for `CCOC(=O)c1c[nH]c2c(=O)[nH]c3ccc(S(=O)(=O)NC)cc3c12` [Compound 27, 8-Methylsulfamoyl-4-oxo-4,5-dihydro-3H-pyrrolo[2,3-c]quinoline-1-ethyl carboxylate], the IC50 was 100 to 1000 nM.

`CCOC(=O)c1c[nH]c2c(=O)[nH]c3ccc(S(=O)(=O)N4CCOCC4)cc3c12` [Compound 28, 8-(Morpholine-4-sulfonyl)-4-oxo-4,5-dihydro-3H-pyrrolo[2,3-c]quinoline-1-ethyl carboxylate]: the concentration for half-maximal inhibition (IC50) was 100 to 1000 nM.

With `CCOC(=O)CCNS(=O)(=O)c1ccc2[nH]c(=O)c3[nH]cc(C(=O)OCC)c3c2c1` [Compound 29, 8-(2-Ethoxycarbonyl-ethylsulfamoyl)-4-oxo-4,5-dihydro-3H-pyrrolo[2,3-c]quinoline-1-ethyl carboxylate], the half-inhibitory concentration (IC50) was in the range of 1000 to 10000 nM.

With `CCOC(=O)c1c[nH]c2c(=O)[nH]c3ccc(S(=O)(=O)NC4CCCCC4)cc3c12` [Compound 30, 8-Cyclohexylsulfamoyl-4-oxo-4,5-dihydro-3H-pyrrolo[2,3-c]quinoline-1-ethyl carboxylate], the IC50 was 100 to 1000 nM.

Turning to `CCOC(=O)c1c[nH]c2c(=O)[nH]c3ccc(S(=O)(=O)NC4CCCCCC4)cc3c12` [Compound 31, 8-Cycloheptylsulfamoyl-4-oxo-4,5-dihydro-3H-pyrrolo[2,3-c]quinoline-1-ethyl carboxylate], the IC50 was 100 to 1000 nM.

As to `CCOC(=O)c1c[nH]c2c(=O)[nH]c3ccc(S(=O)(=O)Cc4ccccc4)cc3c12` [Compound 35, 4-Oxo-8-phenylmethanesulfonyl-4,5-dihydro-3H-pyrrolo[2,3-c]quinoline-1-ethyl carboxylate], the concentration for half-maximal inhibition (IC50) is less than 100 nM.

For the compound `CCOC(=O)c1c[nH]c2c(=O)[nH]c3ccc(S(=O)(=O)Cc4c(Cl)cccc4Cl)cc3c12` [Compound 36, 8-(2,6-Dichlorophenylmethanesulfonyl)-4-oxo-4,5-dihydro-3H-pyrrolo[2,3-c]quinoline-1-ethyl carboxylate], the IC50 lay within 100 to 1000 nM.

On to `CCOC(=O)c1c[nH]c2c(=O)[nH]c3ccc(NS(C)(=O)=O)cc3c12` [Compound 38, 8-Methanesulfonylamino-4-oxo-4,5-dihydro-3H-pyrrolo[2,3-c]quinoline-1-ethyl carboxylate], for which the IC50 is 100 to 1000 nM.

On to `CCOC(=O)c1c[nH]c2c(=O)[nH]c3ccc(NS(=O)(=O)Cc4ccccc4)cc3c12` [Compound 39, 4-Oxo-8-phenylmethanesulfonylamino-4,5-dihydro-3H-pyrrolo[2,3-c]quinoline-1-ethyl carboxylate], for which the IC50 is 100 to 1000 nM.

For the compound `CCOC(=O)c1c[nH]c2c(=O)[nH]c3ccc(NS(=O)(=O)c4ccc(Cl)cc4)cc3c12` [Compound 40, 8-(4-Chloro-benzenesulfonylamino)-4-oxo-4,5-dihydro-3H-pyrrolo[2,3-c]quinoline-1-ethyl carboxylate], the IC50 was 100 to 1000 nM.

With `CCOC(=O)c1c[nH]c2c(=O)[nH]c3ccc(NS(=O)(=O)c4cccc(Cl)c4)cc3c12` [Compound 41, 8-(3-Chloro-benzenesulfonylamino)-4-oxo-4,5-dihydro-3H-pyrrolo[2,3-c]quinoline-1-ethyl carboxylate], the IC50 fell in the range of 100 to 1000 nM.

Turning to `CCOC(=O)c1c[nH]c2c(=O)[nH]c3ccc(NS(=O)(=O)c4ccccc4Cl)cc3c12` [Compound 42, 8-(2-Chloro-benzenesulfonylamino)-4-oxo-4,5-dihydro-3H-pyrrolo[2,3-c]quinoline-1-ethyl carboxylate], the half-maximal inhibitory concentration (IC50) was in the range of 10000 to 100000 nM.
